Data: EPA's ToxRefDB 2

Key:
[1] = test system: rabbit; conditions: Prenatal developmental toxicity study; new zealand white; Oral; Gavage/Intubation; dose end: 18 GD; group: maternal; systemic / in life observation / body weight / body weight gain
[2] = test system: rat; conditions: Prenatal developmental toxicity study, Oral, Gavage/Intubation, dose end: 19 GD
[3] = test system: rat; conditions: Subchronic oral toxicity in rodents, wistar, Feed, dose end: 90 day, group: systemic, systemic / in life observation / clinical signs / motor activity + systemic / organ weight / kidney / relative to body weight + systemic / …
[4] = test system: rat; conditions: Subchronic dermal toxicity, sprague dawley, Topical, dose end: 13 week, group: systemic, systemic / in life observation / clinical signs / desquamation + systemic / in life observation / clinical signs / erythema + systemic / in …
[5] = test system: rat; conditions: Prenatal developmental toxicity study, sprague dawley, Oral, Gavage/Intubation, dose end: 15 GD
[6] = test system: mouse; conditions: Carcinogenicity; cd1; Oral; Gavage/Intubation; dose end: 104 week; group: systemic; systemic / pathology microscopic / gallbladder / adenoma + systemic / pathology microscopic / gallbladder / hemangioma + systemic / …
[7] = test system: rat; conditions: Subchronic oral toxicity in rodents, fischer, Gavage/Intubation, dose end: 90 day, group: systemic, systemic / clinical chemistry / cholesterol / cholesterol + systemic / in life observation / food consumption / food consumption + systemic…
[8] = test system: mouse; conditions: Subchronic oral toxicity in rodents, b6c3f1, Gavage/Intubation, dose end: 13 week, group: systemic
[9] = test system: rat; conditions: Chronic toxicity, fischer, Oral, Gavage/Intubation, dose end: 1 year, group: systemic
[10] = group: developmental, systemic / in life observation / body weight / fetal weight + developmental / developmental malformation / bone / unossified + developmental…
[11] = group: maternal, reproductive / reproductive performance / resorptions / resorptions + systemic / in life observation / body weight / body weight + systemic…
[12] = group: developmental, developmental / developmental malformation / bone / bent + systemic / in life observation / body weight / fetal weight
[13] = group: maternal, systemic / in life observation / body weight / body weight + systemic / in life observation / body weight / body weight gain + systemic / in…
[14] = systemic / clinical chemistry / fatty acids / fatty acid + systemic / pathology microscopic / bone marrow / hypocellularity + systemic / …
[15] = systemic / pathology microscopic / liver / hypertrophy
[16] = systemic / in life observation / body weight / body weight
[17] = systemic / in life observation / body weight / body weight + systemic / organ weight / adrenal gland / relative to body weight + systemic / …

Compound: Cc1cccc(C)c1NC(=O)CC12CCCN1CCC2.Cl [Pilsicainide hydrochloride]
- LEL [1]: 10 mg/kg/day
- LOAEL [1]: > 20 mg/kg/day
- NEL [1]: 5 mg/kg/day
- NOAEL [1]: ≥ 20 mg/kg/day

Compound: Cc1cc(Cl)ccc1OCC(=O)OCCCCCC(C)C [MCPA-isooctyl]
- LEL ([2]; group: developmental, developmental / developmental malformation / bone / ossification sites): 40 mg/kg/day
- LOAEL [2, 10]: 120 mg/kg/day
- NEL [2, 10]: 15 mg/kg/day
- NOAEL [2, 10]: 40 mg/kg/day
- LEL [2, 11]: 120 mg/kg/day
- LOAEL [2, 11]: 120 mg/kg/day
- NEL [2, 11]: 40 mg/kg/day
- NOAEL [2, 11]: 40 mg/kg/day
- LEL [3]: 54 mg/kg/day
- LOAEL [3]: 54 mg/kg/day
- NEL [3]: 5 mg/kg/day
- NOAEL [3]: 5 mg/kg/day

Compound: CCC(C)(C)c1ccc(O)cc1 [4-(2-Methylbutan-2-yl)phenol]
- LEL [4]: 10 mg/kg/day
- LOAEL [4]: 10 mg/kg/day
- NEL [4]: 2.5 mg/kg/day
- NOAEL [4]: 2.5 mg/kg/day
- LEL [5, 12]: 500 mg/kg/day
- LOAEL [5, 12]: 500 mg/kg/day
- NEL [5, 12]: 200 mg/kg/day
- NOAEL [5, 12]: 200 mg/kg/day
- LEL [5, 13]: 200 mg/kg/day
- LOAEL [5, 13]: 200 mg/kg/day
- NEL [5, 13]: 50 mg/kg/day
- NOAEL [5, 13]: 50 mg/kg/day

Compound: Cc1c(C)c2c(c(C)c1O)CCC(C)(COc1ccc(CC3SC(=O)NC3=O)cc1)O2 (centres undefined) [Troglitazone]
- LEL [6]: 50 mg/kg/day
- LOAEL [6]: > 50 mg/kg/day
- NEL [6]: 4 mg/kg/day
- NOAEL [6]: ≥ 50 mg/kg/day
- LEL [7]: 20 mg/kg/day
- LOAEL [7]: > 2500 mg/kg/day
- NEL [7]: < 20 mg/kg/day
- NOAEL [7]: ≥ 2500 mg/kg/day
- LOAEL [8, 14]: > 1200 mg/kg/day
- NOAEL [8, 14]: ≥ 1200 mg/kg/day
- LEL [8, 15]: 50 mg/kg/day
- NEL [8, 15]: < 50 mg/kg/day
- LEL [9, 16]: 25 mg/kg/day
- NEL [9, 16]: < 25 mg/kg/day
- LOAEL [9, 17]: > 100 mg/kg/day
- NOAEL [9, 17]: ≥ 100 mg/kg/day
